Experimental data taken from US20100298141A1, “SUBSTITUTED PYRIDINE N-OXIDE HERBICIDES” (E. I. DU PONT DE NEMOURS AND COMPANY, priority 2007, published 2010).

Assays:
barnyardgrass [1] = experiment: Test C flooded paddy test; assay type: in vivo, Echinochloa crus-galli; settings: Flood, scale 0 to 100, 0 no effect, 100 complete control, 13 to 15 days
Summary of the method: (§1)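 Compound was added to standing water 3 cm above soil, flood maintained, and plants held in a greenhouse before visual scoring against controls at 13 to 15 days.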

umbrella sedge = experiment: Test C flooded paddy test; assay type: in vivo, Cyperus difformis; settings: Flood, 250 g ai/ha; scale 0 to 100, 0 no effect, 100 complete control; 13 to 15 days
Summary of the method: as §1

barnyardgrass [2] = experiment: Test A pre-/postemergence greenhouse test; assay type: in vivo, Echinochloa crus-galli; settings: for Plant response rating, Barnyardgrass: 0 to 100 scale where 0 is no effect and 100 is complete control; for Barnyardgrass plant response rating: 0 to 100 scale
Summary of the method: (§2)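 Greenhouse herbicide screen, pre- and postemergence in parallel. Soil: loam plus sand. Formulation: non-phytotoxic solvent mix with surfactant. Postemergence stage: one to two leaves, 2–10 cm height. Evaluation: visual injury, compared with untreated controls, about 10 days after treatment.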

duck salad = experiment: Test C flooded paddy test; assay type: in vivo, Heteranthera limosa; settings: Flood, scale 0 to 100, 0 no effect, 100 complete control, 13 to 15 days
Summary of the method: as §1

rice = experiment: Test C flooded paddy test; assay type: in vivo, Oryza sativa; settings: Flood, scale 0 to 100, 0 no effect, 100 complete control, 13 to 15 days
Summary of the method: as §1

corn = experiment: Test A pre-/postemergence greenhouse test; assay type: in vivo, Zea mays; settings: for Plant response rating, Corn: 0 to 100 scale where 0 is no effect and 100 is complete control; for Corn plant response rating: 0 to 100 scale
Summary of the method: as §2

redroot pigweed = experiment: Test A pre-/postemergence greenhouse test; assay type: in vivo, Amaranthus retroflexus; settings: for Plant response rating, Pigweed: 0 to 100 scale where 0 is no effect and 100 is complete control; for Pigweed plant response rating: 0 to 100 scale
Summary of the method: as §2

velvetleaf = experiment: Test A pre-/postemergence greenhouse test; assay type: in vivo, Abutilon theophrasti; settings: for Plant response rating, Velvetleaf: 0 to 100 scale where 0 is no effect and 100 is complete control; for Velvetleaf plant response rating: 0 to 100 scale
Summary of the method: as §2

morningglory = experiment: Test A pre-/postemergence greenhouse test; assay type: in vivo, Ipomoea spp.; settings: for Plant response rating, Morningglory: 0 to 100 scale where 0 is no effect and 100 is complete control; for Morningglory plant response rating: 0 to 100 scale
Summary of the method: as §2

wheat = experiment: Test A pre-/postemergence greenhouse test; assay type: in vivo, Triticum aestivum; settings: for Plant response rating, Wheat: 0 to 100 scale where 0 is no effect and 100 is complete control; for Wheat plant response rating: 0 to 100 scale
Summary of the method: as §2

crabgrass = experiment: Test A pre-/postemergence greenhouse test; assay type: in vivo, Digitaria sanguinalis; settings: for Plant response rating, Crabgrass, Large: 0 to 100 scale where 0 is no effect and 100 is complete control; for Crabgrass, Large plant response rating: 0 to 100 scale
Summary of the method: as §2

giant foxtail = experiment: Test A pre-/postemergence greenhouse test; assay type: in vivo, Setaria faberi; settings: for Plant response rating, Foxtail, Giant: 0 to 100 scale where 0 is no effect and 100 is complete control; for Foxtail, Giant plant response rating: 0 to 100 scale
Summary of the method: as §2

[3] = Postemergence, 500 g ai/ha, 0 is no effect, 100 is complete control
[4] = Preemergence, 125 g ai/ha, 0 no effect, 100 complete control

SMILES | Plant response rating, Barnyardgrass (barnyardgrass [1]; 62 g ai/ha) | Plant response rating, Barnyardgrass (barnyardgrass [1]; 250 g ai/ha) | Plant response rating, Sedge, Umbrella (umbrella sedge) | Plant response rating, Barnyardgrass (barnyardgrass [2]; Postemergence, 125 g ai/ha) | Barnyardgrass plant response rating (barnyardgrass [2]; [3]) | Barnyardgrass plant response rating (barnyardgrass [2]; [4]) | Plant response rating, Barnyardgrass (barnyardgrass [2]; Preemergence, 500 g ai/ha) | Plant response rating, Ducksalad (duck salad; 62 g ai/ha) | Plant response rating, Ducksalad (duck salad; 250 g ai/ha) | Plant response rating, Rice (rice; 62 g ai/ha) | Plant response rating, Rice (rice; 250 g ai/ha) | Plant response rating, Corn (corn; Postemergence, 125 g ai/ha) | Corn plant response rating (corn; [3]) | Corn plant response rating (corn; [4]) | Plant response rating, Corn (corn; Preemergence, 500 g ai/ha) | Plant response rating, Pigweed (redroot pigweed; Postemergence, 125 g ai/ha) | Pigweed plant response rating (redroot pigweed; [3]) | Pigweed plant response rating (redroot pigweed; [4]) | Plant response rating, Pigweed (redroot pigweed; Preemergence, 500 g ai/ha) | Plant response rating, Velvetleaf (velvetleaf; Postemergence, 125 g ai/ha) | further results
O=S(=O)(Cc1c(C(F)(F)F)nn(CC(F)(F)F)c1Cl)c1cccc[n+]1[O-] [Compound 44] | 0 | 0 | 50 | 70 | 80 | 70 | 90 | 0 | 40 | 0 | 30 | 0 | 0 | 0 | 0 | 0 | 10 | 0 | 100 | 0 | Velvetleaf plant response rating (velvetleaf; [3]): 30; Velvetleaf plant response rating (velvetleaf; [4]): 0; Plant response rating, Velvetleaf (velvetleaf; Preemergence, 500 g ai/ha): 30; Plant response rating, Morningglory (morningglory; Postemergence, 125 g ai/ha): 10; Morningglory plant response rating (morningglory; [3]): 40; Morningglory plant response rating (morningglory; [4]): 0; Plant response rating, Morningglory (morningglory; Preemergence, 500 g ai/ha): 60; Plant response rating, Wheat (wheat; Postemergence, 125 g ai/ha): 0; Wheat plant response rating (wheat; [3]): 0; Wheat plant response rating (wheat; [4]): 0; Plant response rating, Wheat (wheat; Preemergence, 500 g ai/ha): 20; Plant response rating, Crabgrass, Large (crabgrass; Postemergence, 125 g ai/ha): 70; Crabgrass, Large plant response rating (crabgrass; [3]): 80; Crabgrass, Large plant response rating (crabgrass; [4]): 60; Plant response rating, Crabgrass, Large (crabgrass; Preemergence, 500 g ai/ha): 100; Plant response rating, Foxtail, Giant (giant foxtail; Postemergence, 125 g ai/ha): 70; Foxtail, Giant plant response rating (giant foxtail; [3]): 80; Foxtail, Giant plant response rating (giant foxtail; [4]): 90; Plant response rating, Foxtail, Giant (giant foxtail; Preemergence, 500 g ai/ha): 100
[O-][n+]1ccccc1[S+]([O-])C(Cl)c1c(C(F)(F)F)nn(CC(F)(F)F)c1Cl (stereo not drawn) [Compound 45] | 0 | 20 | 80 | 40 | 70 | 0 | 100 | 40 | 75 | 0 | 25 | 0 | 0 | 0 | 0 | 40 | 60 | 50 | 100 | 30 | Velvetleaf plant response rating (velvetleaf; [3]): 40; Velvetleaf plant response rating (velvetleaf; [4]): 0; Plant response rating, Velvetleaf (velvetleaf; Preemergence, 500 g ai/ha): 50; Plant response rating, Morningglory (morningglory; Postemergence, 125 g ai/ha): 0; Morningglory plant response rating (morningglory; [3]): 40; Morningglory plant response rating (morningglory; [4]): 50; Plant response rating, Morningglory (morningglory; Preemergence, 500 g ai/ha): 60; Plant response rating, Wheat (wheat; Postemergence, 125 g ai/ha): 0; Wheat plant response rating (wheat; [3]): 0; Wheat plant response rating (wheat; [4]): 0; Plant response rating, Wheat (wheat; Preemergence, 500 g ai/ha): 30; Plant response rating, Crabgrass, Large (crabgrass; Postemergence, 125 g ai/ha): 60; Crabgrass, Large plant response rating (crabgrass; [3]): 80; Crabgrass, Large plant response rating (crabgrass; [4]): 60; Plant response rating, Crabgrass, Large (crabgrass; Preemergence, 500 g ai/ha): 80; Plant response rating, Foxtail, Giant (giant foxtail; Postemergence, 125 g ai/ha): 50; Foxtail, Giant plant response rating (giant foxtail; [3]): 80; Foxtail, Giant plant response rating (giant foxtail; [4]): 70; Plant response rating, Foxtail, Giant (giant foxtail; Preemergence, 500 g ai/ha): 100
Cc1cc[n+]([O-])c([S+]([O-])Cc2c(C(F)(F)F)nn(CC(F)(F)F)c2Cl)c1 (stereo not drawn) [Compound 48] | 0 | 0 | 50 | 40 | 70 | 50 | 90 | 0 | 25 | 0 | 25 | 0 | 50 | 0 | 60 | 50 | 60 | 70 | 100 | 0 | Velvetleaf plant response rating (velvetleaf; [3]): 40; Velvetleaf plant response rating (velvetleaf; [4]): 0; Plant response rating, Velvetleaf (velvetleaf; Preemergence, 500 g ai/ha): 60; Plant response rating, Morningglory (morningglory; Postemergence, 125 g ai/ha): 30; Morningglory plant response rating (morningglory; [3]): 50; Morningglory plant response rating (morningglory; [4]): 40; Plant response rating, Morningglory (morningglory; Preemergence, 500 g ai/ha): 80; Plant response rating, Wheat (wheat; Postemergence, 125 g ai/ha): 0; Wheat plant response rating (wheat; [3]): 50; Wheat plant response rating (wheat; [4]): 20; Plant response rating, Wheat (wheat; Preemergence, 500 g ai/ha): 80; Plant response rating, Crabgrass, Large (crabgrass; Postemergence, 125 g ai/ha): 50; Crabgrass, Large plant response rating (crabgrass; [3]): 70; Crabgrass, Large plant response rating (crabgrass; [4]): 70; Plant response rating, Crabgrass, Large (crabgrass; Preemergence, 500 g ai/ha): 90; Plant response rating, Foxtail, Giant (giant foxtail; Postemergence, 125 g ai/ha): 70; Foxtail, Giant plant response rating (giant foxtail; [3]): 80; Foxtail, Giant plant response rating (giant foxtail; [4]): 80; Plant response rating, Foxtail, Giant (giant foxtail; Preemergence, 500 g ai/ha): 90
Cc1cc[n+]([O-])c(S(=O)(=O)Cc2c(C(F)(F)F)nn(CC(F)(F)F)c2Cl)c1 [Compound 49] | 0 | 0 | 10 | 40 | 70 | 70 | 90 | 0 | 0 | 0 | 0 | 0 | 0 | 0 | 0 | 0 | 10 | 80 | 100 | 20 | Velvetleaf plant response rating (velvetleaf; [3]): 30; Velvetleaf plant response rating (velvetleaf; [4]): 0; Plant response rating, Velvetleaf (velvetleaf; Preemergence, 500 g ai/ha): 40; Plant response rating, Morningglory (morningglory; Postemergence, 125 g ai/ha): 0; Morningglory plant response rating (morningglory; [3]): 0; Morningglory plant response rating (morningglory; [4]): 30; Plant response rating, Morningglory (morningglory; Preemergence, 500 g ai/ha): 30; Plant response rating, Wheat (wheat; Postemergence, 125 g ai/ha): 0; Wheat plant response rating (wheat; [3]): 0; Wheat plant response rating (wheat; [4]): 0; Plant response rating, Wheat (wheat; Preemergence, 500 g ai/ha): 30; Plant response rating, Crabgrass, Large (crabgrass; Postemergence, 125 g ai/ha): 30; Crabgrass, Large plant response rating (crabgrass; [3]): 70; Crabgrass, Large plant response rating (crabgrass; [4]): 70; Plant response rating, Crabgrass, Large (crabgrass; Preemergence, 500 g ai/ha): 90; Plant response rating, Foxtail, Giant (giant foxtail; Postemergence, 125 g ai/ha): 40; Foxtail, Giant plant response rating (giant foxtail; [3]): 70; Foxtail, Giant plant response rating (giant foxtail; [4]): 80; Plant response rating, Foxtail, Giant (giant foxtail; Preemergence, 500 g ai/ha): 90
